Measurements: PubChem BioAssay AID248 (DTP/NCI, 2004)
“And” between values parts separate entries of the source, which are not always exact repeats. Identical values can stand only once. Inconclusive results and toxic doses are left out. No stated cut-off is given here; in the data, active means T/C of 150% or more; inactive means T/C below 125%.

Test system: L1210 leukemia ip in BDF1 mice, survival T/C
Assay: NCI In Vivo Anticancer Drug Screen. Data for tumor model L1210 Leukemia (intraperitoneal) in B6D2F1 (BDF1) mice
Settings: endpoint: mean survival time, higher = longer survival
In short: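 Survival endpoint. Drug-treated group vs vehicle group, expressed as T divided by C. Tumor passaged by transplantation.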

[1] = dose: 100.0 mg/kg/injection, schedule: Q01DX001 (ip), vehicle: saline with Tween-80
[2] = dose: 200.0 mg/kg/injection, schedule: Q01DX001 (ip), vehicle: saline with Tween-80
[3] = dose: 400.0 mg/kg/injection, schedule: Q01DX001 (ip), vehicle: saline with Tween-80
[4] = dose: 100.0 mg/kg/injection, schedule: Q01DX009 (ip), vehicle: Klucel (hydroxypropylcellulose) (HPC)
[5] = dose: 200.0 mg/kg/injection, schedule: Q01DX009 (ip), vehicle: Klucel (hydroxypropylcellulose) (HPC)
[6] = dose: 400.0 mg/kg/injection, schedule: Q01DX009 (ip), vehicle: Klucel (hydroxypropylcellulose) (HPC)
[7] = dose: 50.0 mg/kg/injection, schedule: Q01DX009 (ip), vehicle: Klucel (hydroxypropylcellulose) (HPC)
[8] = dose: 100.0 mg/kg/injection, schedule: Q04DX003 (ip), vehicle: saline
[9] = dose: 100.0 mg/kg/injection, schedule: Q04DX003 (ip), vehicle: Klucel (hydroxypropylcellulose) (HPC)
[10] = dose: 200.0 mg/kg/injection, schedule: Q04DX003 (ip), vehicle: Klucel (hydroxypropylcellulose) (HPC)
[11] = dose: 400.0 mg/kg/injection, schedule: Q04DX003 (ip), vehicle: Klucel (hydroxypropylcellulose) (HPC)
[12] = dose: 100.0 mg/kg/injection, schedule: Q01DX009 (ip), vehicle: saline with Tween-80
[13] = dose: 200.0 mg/kg/injection, schedule: Q01DX009 (ip), vehicle: saline with Tween-80
[14] = dose: 200.0 mg/kg/injection, schedule: Q04DX003 (ip), vehicle: saline
[15] = dose: 400.0 mg/kg/injection, schedule: Q04DX003 (ip), vehicle: saline
[16] = dose: 100.0 mg/kg/injection, schedule: Q01DX001 (ip), vehicle: saline
[17] = dose: 100.0 mg/kg/injection, schedule: Q01DX009 (ip), vehicle: saline

Measured: T/C

NN1C(=O)c2c(Cl)c(Cl)c(Cl)c(Cl)c2C1=O
inactive: [1] 87 % of control | [2] 87 % of control | [3] 93 % of control

CCOC(=O)c1cnc(=O)[nH]c1Nc1ccccc1Br
inactive: dose: 100.0 mg/kg/injection, schedule: Q04DX003 (ip), vehicle: gum acacia 95 % of control | dose: 200.0 mg/kg/injection, schedule: Q04DX003 (ip), vehicle: gum acacia 90 % of control | dose: 400.0 mg/kg/injection, schedule: Q04DX003 (ip), vehicle: gum acacia 95 % of control

CCCC(C(=O)OCC)C1=NC(C)(C)CC(C)O1 (stereo not drawn)
inactive: dose: 100.0 mg/kg/injection, schedule: Q01DX009 (ip), vehicle: alcohol 102 % of control | dose: 200.0 mg/kg/injection, schedule: Q01DX009 (ip), vehicle: alcohol 105 % of control | dose: 400.0 mg/kg/injection, schedule: Q01DX009 (ip), vehicle: alcohol 105 % of control

CC/C(=N/N=C(N)N)c1ccc(F)cc1
inactive: dose: 15.0 mg/kg/injection, schedule: Q01DX Z (oral), vehicle: carboxymethylcellulose (CMC) 104 % of control | dose: 30.0 mg/kg/injection, schedule: Q01DX Z (oral), vehicle: carboxymethylcellulose (CMC) 101 % of control | dose: 60.0 mg/kg/injection, schedule: Q01DX Z (oral), vehicle: carboxymethylcellulose (CMC) 98 % of control

Cc1cccc(C)c1NC(=O)N(Cc1ccccc1)Cc1ccccc1
inactive: [4] 98 % of control | [5] 112 % of control | [6] 110 % of control

CC(C)CC(NS(=O)(=O)Cc1ccccc1)C(=O)NN (stereo not drawn)
inactive: dose: 100.0 mg/kg/injection, schedule: Q01DX001 (ip), vehicle: other 98 % of control | dose: 200.0 mg/kg/injection, schedule: Q01DX001 (ip), vehicle: other 96 % of control | dose: 400.0 mg/kg/injection, schedule: Q01DX001 (ip), vehicle: other 110 % of control

CCc1ccc(NC2=NCCO2)cc1
inactive: dose: 12.5 mg/kg/injection, schedule: Q04DX003 (ip), vehicle: saline 112 % of control | dose: 25.0 mg/kg/injection, schedule: Q01DX009 (ip), vehicle: Klucel (hydroxypropylcellulose) (HPC) 100 % of control | dose: 25.0 mg/kg/injection, schedule: Q04DX003 (ip), vehicle: saline 114 % of control | [7] 95 % of control | dose: 50.0 mg/kg/injection, schedule: Q04DX003 (ip), vehicle: saline 101 % of control | [8] 102 % of control

O=C(/C=C/c1ccccc1Cl)c1ccccc1
inactive: [7] 99 % of control | [4] 92 % of control | [5] 96 % of control

CC(=O)NNc1ccc([N+](=O)[O-])cc1
inactive: [9] 89 % of control | [10] 94 % of control | [11] 89 % of control

COc1ccc(NC(=O)c2cccc(C(=O)Nc3ccc(OC)cc3)c2)cc1
inactive: [4] 88 % of control | [9] 93 % of control | [5] 97 % of control | [10] 88 % of control | [6] 97 % of control | [11] 93 % of control

O=[N+]([O-])c1ccc2c(c1)c(-c1cc(Cl)cc(Cl)c1)nc1ccccc12
inactive: dose: 50.0 mg/kg/injection, schedule: Q01DX009 (ip), vehicle: saline with Tween-80 104 % of control | [12] 103 % of control | dose: 100.0 mg/kg/injection, schedule: Q04DX003 (ip), vehicle: saline with Tween-80 93 % of control | [13] 106 % of control | dose: 200.0 mg/kg/injection, schedule: Q04DX003 (ip), vehicle: saline with Tween-80 90 % of control | dose: 400.0 mg/kg/injection, schedule: Q04DX003 (ip), vehicle: saline with Tween-80 93 % of control

CCC[As](=O)(O)CC[As](=O)(O)CCC
inactive: [1] 104 % of control | [2] 112 % of control | [3] 96 % of control

Clc1c(CBr)ccc(CBr)c1Cl
inactive: dose: 6.25 mg/kg/injection, schedule: Q01DX009 (ip), vehicle: saline with Tween-80 91 % of control | dose: 6.25 mg/kg/injection, schedule: Q04DX003 (ip), vehicle: Klucel (hydroxypropylcellulose) (HPC) 95 % of control | dose: 12.5 mg/kg/injection, schedule: Q01DX009 (ip), vehicle: saline with Tween-80 89 % of control | dose: 12.5 mg/kg/injection, schedule: Q04DX003 (ip), vehicle: Klucel (hydroxypropylcellulose) (HPC) 92 % of control | dose: 25.0 mg/kg/injection, schedule: Q01DX009 (ip), vehicle: saline with Tween-80 96 % of control | dose: 25.0 mg/kg/injection, schedule: Q04DX003 (ip), vehicle: Klucel (hydroxypropylcellulose) (HPC) 93 % of control

Oc1ccc(Br)cc1C=Nc1ccccc1
inactive: dose: 100.0 mg/kg/injection, schedule: Q04DX002 (ip), vehicle: saline with Tween-80 96 % of control | dose: 200.0 mg/kg/injection, schedule: Q04DX002 (ip), vehicle: saline with Tween-80 104 % of control | dose: 400.0 mg/kg/injection, schedule: Q04DX002 (ip), vehicle: saline with Tween-80 100 % of control

CCOC(=O)c1[nH]c(C)c(C(C)=O)c1C
inactive: [12] 92 % of control | [13] 97 % of control | dose: 400.0 mg/kg/injection, schedule: Q01DX009 (ip), vehicle: saline with Tween-80 100 % of control

CC1CC(=O)NC1=O (stereo not drawn)
inactive: [8] 115 % of control | [14] 116 % of control | [15] 112 % of control

COc1nc(N)nc2nc(N)c(-c3ccc(N(CCO)CCO)cc3)nc12
inactive: [16] 95 % of control | dose: 200.0 mg/kg/injection, schedule: Q01DX001 (ip), vehicle: saline 96 % of control | dose: 400.0 mg/kg/injection, schedule: Q01DX001 (ip), vehicle: saline 95 % of control

CC1(C)OCC2SC(n3cnc4c(N)ncnc43)C(O)C2O1 (stereo not drawn)
inactive: dose: 25.0 mg/kg/injection, schedule: Q01DX009 (ip), vehicle: saline 94 % of control | dose: 33.0 mg/kg/injection, schedule: Q01DX001 (ip), vehicle: carboxymethylcellulose (CMC) 97 % of control | dose: 50.0 mg/kg/injection, schedule: Q01DX009 (ip), vehicle: saline 98 % of control | dose: 66.5 mg/kg/injection, schedule: Q01DX001 (ip), vehicle: carboxymethylcellulose (CMC) 92 % of control | dose: 100.0 mg/kg/injection, schedule: Q01DX005 (ip), vehicle: saline 94 % of control and 97 % of control | [17] 98 % of control | dose: 133.0 mg/kg/injection, schedule: Q01DX001 (ip), vehicle: carboxymethylcellulose (CMC) 92 % of control | dose: 200.0 mg/kg/injection, schedule: Q01DX005 (ip), vehicle: saline 95 % of control

Cc1ccc(S(=O)(=O)N=S2CCCC2)cc1
inactive: [4] 97 % of control | [5] 102 % of control | [6] 102 % of control

C[n+]1cccc(CNC(=O)COc2ccc(Cl)c(Cl)c2)c1
inactive: dose: 25.0 mg/kg/injection, schedule: Q01DX001 (ip), vehicle: saline 106 % of control | dose: 50.0 mg/kg/injection, schedule: Q01DX001 (ip), vehicle: saline 103 % of control | [16] 97 % of control and 109 % of control

NC(N)=NCCCC(=O)O
inactive: [17] 92 % of control | [8] 110 % of control | dose: 200.0 mg/kg/injection, schedule: Q01DX009 (ip), vehicle: saline 94 % of control | [14] 108 % of control | dose: 400.0 mg/kg/injection, schedule: Q01DX009 (ip), vehicle: saline 92 % of control | [15] 103 % of control
